How the values were obtained:
[1] = system: Bacillus cereus; experiment: Test Example 2: preventing formation of bacterial CGC in vitro (K-B method); format: cell-based
Description: (§1) E. coli (No. 33310, purchased from Chengdu Institute of Biological Products, the Ministry of Public Health) was used in the tests. Grid design was performed by using antibiotic with different concentrations and N-acetyl-D-glucosamine having an amount of from 10 mg to 300 mg. Streak plates were conducted separately, and K-B method was employed for drugs. Colonies at marginal part of drug inhibition zone were picked and were observed under microscope. If cell length was more than 50 μm and cell number was more than 5 in each visual field, it was deemed as CGC positive and was marked with “+”; while if cell length was not greater than 50 μm and cell number was within the range from 0 to 4 in each visual field, it was deemed as CGC negative and was marked with “−”. At this time, the ratio of two substances was called “effective ratio”.
(§2) Effects tests of compound preparation comprising N-acetyl-D-glucosamine and antibiotics for preventing the formation of bacterial CGC in vitro.
(§3) The tests were carried out in vitro, wherein gram-negative amphimicrodes, gram-negative anaerobes and gram-positive aerobes were separately coated on streak plates, test drugs and control drugs were separately dissolved with same volume of sterile water for injection, 10 μl of each drug was used for preparing drug-sensitive paper, K-B method was employed in the tests of drugs, and the inhibition situations of CGC formation were observed.

[2] = system: Bacillus proteus; experiment: as above; format: cell-based
Description: as §1, §2, §3

[3] = system: Bacteroides fragilis; experiment: as above; format: cell-based
Description: as §1, §2, §3

[4] = system: Citro Bacter; experiment: as above; format: cell-based
Description: as §1, §2, §3

[5] = system: Diphtheroid bacillus; experiment: as above; format: cell-based
Description: as §1, §2, §3

[6] = system: E. coli; experiment: as above; format: cell-based
Description: as §1, §2, §3

[7] = system: Klebsiella; experiment: as above; format: cell-based
Description: as §1, §2, §3

[8] = system: Listeria; experiment: as above; format: cell-based
Description: as §1, §2, §3

[9] = system: Nucleic Acid Bacter; experiment: as above; format: cell-based
Description: as §1, §2, §3

[10] = system: rats infected and not infected by Bacillus typhi murium; format: in vivo, Wistar rats; conditions: rats infected or not by Bacillus typhi murium; N-acetyl-D-glucosamine (100 mg)+spiramycin (900 mg) vs only spiramycin; consecutive week; 15 rats per group
[11] = system: irritable bowel syndrome (IBS) caused by bacterial CGC; experiment: Test Example 5: preventing irritable bowel syndrome (IBS) caused by bacterial CGC; format: in vivo, rats
From the text: On this basis, the rats were subjected to stimulations such as electric stimulation, intragastric administration with fructus zanthoxyli water, cold, constraint etc. in order to induce IBS, and the incidence rates of IBS of two groups were observed.

[12] = compound preparation 100 mg N-acetyl-D-glucosamine + 900 mg spiramycin, control 900 mg spiramycin
[13] = compound preparation 100 mg N-acetyl-D-glucosamine + 1500 mg ampicillin-sulbactam, control drug was ampicillin-sulbactam

With spiramycin the CGC formation [1, 12] was “+ (If cell length was more than 50 μm and cell number was more than 5 in each visual field, it was deemed as CGC positive and was marked with “+”)”, the CGC formation [1, 13] was “+ (If cell length was more than 50 μm and cell number was more than 5 in each visual field, it was deemed as CGC positive and was marked with “+”)” and the CGC formation [2, 12] was “+ (If cell length was more than 50 μm and cell number was more than 5 in each visual field, it was deemed as CGC positive and was marked with “+”)”. For the same substance, the CGC formation [2, 13] was “+ (If cell length was more than 50 μm and cell number was more than 5 in each visual field, it was deemed as CGC positive and was marked with “+”)”, the CGC formation [3, 12] was “+ (If cell length was more than 50 μm and cell number was more than 5 in each visual field, it was deemed as CGC positive and was marked with “+”)” and the CGC formation [3, 13] was “+ (If cell length was more than 50 μm and cell number was more than 5 in each visual field, it was deemed as CGC positive and was marked with “+”)”. For the same substance, the CGC formation [4, 12] was “+ (If cell length was more than 50 μm and cell number was more than 5 in each visual field, it was deemed as CGC positive and was marked with “+”)”, the CGC formation [4, 13] was “+ (If cell length was more than 50 μm and cell number was more than 5 in each visual field, it was deemed as CGC positive and was marked with “+”)” and the CGC formation [5, 12] was “+ (If cell length was more than 50 μm and cell number was more than 5 in each visual field, it was deemed as CGC positive and was marked with “+”)”. For the same substance, the CGC formation [5, 13] was “+ (If cell length was more than 50 μm and cell number was more than 5 in each visual field, it was deemed as CGC positive and was marked with “+”)”, the CGC formation [6, 12] was “+ (If cell length was more than 50 μm and cell number was more than 5 in each visual field, it was deemed as CGC positive and was marked with “+”)” and the CGC formation [6, 13] was “+ (If cell length was more than 50 μm and cell number was more than 5 in each visual field, it was deemed as CGC positive and was marked with “+”)”. The CGC formation [7, 12] was “+ (If cell length was more than 50 μm and cell number was more than 5 in each visual field, it was deemed as CGC positive and was marked with “+”)”, the CGC formation [7, 13] was “+ (If cell length was more than 50 μm and cell number was more than 5 in each visual field, it was deemed as CGC positive and was marked with “+”)” and the CGC formation [8, 12] was “+ (If cell length was more than 50 μm and cell number was more than 5 in each visual field, it was deemed as CGC positive and was marked with “+”)”. The CGC formation [8, 13] was “+ (If cell length was more than 50 μm and cell number was more than 5 in each visual field, it was deemed as CGC positive and was marked with “+”)”, the CGC formation [9, 12] was “+ (If cell length was more than 50 μm and cell number was more than 5 in each visual field, it was deemed as CGC positive and was marked with “+”)” and the CGC formation [9, 13] was “+ (If cell length was more than 50 μm and cell number was more than 5 in each visual field, it was deemed as CGC positive and was marked with “+”)”. The “positive rates of stool CGC and intestinal mucosa CGC” value [10] was 100%, the “incidence rate of IBS” value ([11]; first of three values given respectively: electric stimulation) was 33% and the “CGCs in the rat stools after one week of drug withdrawal” value ([11]; rats, effective dosage for consecutive 10 days, 30 rats per group) was “still present”. The “CGCs in the stools of the rats” value ([11]; rats, effective dosage for consecutive 10 days, stools observed during administration and within 1 week after drug withdrawal, 30 rats per group) was “a large amount of CGCs appeared”, the “incidence rate of IBS” value ([11]; second of three values given respectively: intragastric administration with fructus zanthoxyli water) was 33% and the “incidence rate of IBS” value ([11]; third of three values given respectively: cold, constraint etc.) was 33%.

Reference: US20070191291A1, “Compound antibacterial drugs comprising n-acetyl-d-glucosamine” (priority 2003, published 2007)
